This is an account of results in US4983328A, “N-(4-(3-aminopropyl)aminobutyl)-2-(ω-gua nidino-fatty-acid-amido(-2-substituted-ethanamide, salt thereof, and process for preparation thereof” (Bristol-Myers Company, priority 1981, dated 1991).

The test system of series [1] is mouse leukemia L-1210 cells. Description: growth inhibitory activity to cancer cells in vitro (L-1210, 48 hours). It counts as cell-based. The note with it: for inhibition at 5 µg/mL: L1210, 5 mcg/ml; for inhibition at 10 µg/mL: L1210, 10 mcg/ml; for inhibition at 20 µg/mL: L1210, 20 mcg/ml; for inhibition at 40 µg/mL: L1210, 40 mcg/ml; for inhibition at 80 µg/mL: L1210, 80 mcg/ml; for IC50: L1210, L-1210 cells, read-out: 50% inhibitory concentration; for inhibition at 2.5 µg/mL: L1210, 2.5 mcg/ml. On the procedure:
DBA/2 mice were implanted with 10^5 mouse leukemia L-1210 cells. The ascites collected asceptically from the mice after 4 days of feeding was washed three times with physiological saline to obtain L-1210 cells, which was then suspended in RPMI 1640 culture medium [G. E. Moore, Journal of the American Medical Association, Vol. 199, 519 (1967); H. J. Morton, In Vitro, Vol. 6, 89 (1970)] to which 10% fetal calf serum and 5 μM 2-mercaptoethanol had been added, and the resulting suspension was diluted to 5×10^4 L-1210 cells per 0.9 ml. A microplate carrying 0.9 ml of the cell suspension and 0.1 ml of the culture medium containing the sample being tested was kept in a carbon dioxide incubator at 37° C. After 48 hours of cultivation, the number of cells was measured by means of a Coulter Counter (Coulter Electronics, Inc., U.S.A.) to obtain the growth inhibition (%)=(1--T/C )×100=[1-(number of grown cells in medium containing sample/(number of grown cells in control medium)]×100. The 50% growth inhibitory concentration was calculated from the values of growth inhibition at varied sample concentrations. The results of tests on typical compounds of this invention for the growth inhibition of L-1210 cells were as shown in Table 6.

The nature of series [2]: cumulative toxicity in mice (maximum tolerated dose, once a day for 6 consecutive days). Particulars: mouse, in vivo, ip, i.p. once a day for 6 consecutive days, total dose, read-out: Maximum Tolerated Dose (total dose not causing death). On the procedure:
(§1) In Table 8 median lethal doses (LD50) of typical compounds of this invention are shown, measured in mice upon single intraperitoneal administration, as well as maximum tolerated doses in terms of total dose when a fixed amount per unit body weight was administered intraperitoneally to mice once a day for 6 consecutive days.
**Maximum value of the total dose not causing death when a fixed amount
per unit body weight is administered to mice once a day for 6 consecutive

Series [3] is described as follows: acute toxicity in mice (single intraperitoneal administration). The note with it: mouse, in vivo, ip; mice, single i.p.; read-out: LD50 (median lethal dose on single administration). On the procedure:
as §1
*Median lethal dose on single administration.

Series [4] relates to mouse leukemia L-1210. Description: therapeutic effect on implanted cancer in mice (L-1210, survival over 30 days). The class given is in vivo, mouse (BDF1). Particulars: L1210, ip, 720 h, 6 days; for responders at 0.2 mg/kg / response vs control in vivo at 0.2 mg/kg: 0.20 mg/kg/day i.p.; for responders at 0.2 mg/kg / responders at 0.39 mg/kg / responders at 0.78 mg/kg / responders at 1.56 mg/kg / responders at 3.13 mg/kg / responders at 6.25 mg/kg / responders at 12.5 mg/kg / responders at 25 mg/kg / responders at 50 mg/kg: read-out: Number of mice survived for 30 days (converted); for response vs control in vivo at 0.2 mg/kg / response vs control in vivo at 0.39 mg/kg / response vs control in vivo at 0.78 mg/kg / response vs control in vivo at 1.56 mg/kg / response vs control in vivo at 3.13 mg/kg / response vs control in vivo at 6.25 mg/kg / response vs control in vivo at 12.5 mg/kg / response vs control in vivo at 25 mg/kg / response vs control in vivo at 50 mg/kg: read-out: Prolongation of survival period (%), T/C × 100; for responders at 0.39 mg/kg / response vs control in vivo at 0.39 mg/kg: 0.39 mg/kg/day i.p.; for responders at 0.78 mg/kg / response vs control in vivo at 0.78 mg/kg: 0.78 mg/kg/day i.p.; for responders at 1.56 mg/kg / response vs control in vivo at 1.56 mg/kg: 1.56 mg/kg/day i.p.; for responders at 3.13 mg/kg / response vs control in vivo at 3.13 mg/kg: 3.13 mg/kg/day i.p.; for responders at 6.25 mg/kg / response vs control in vivo at 6.25 mg/kg: 6.25 mg/kg/day i.p.; for responders at 12.5 mg/kg / response vs control in vivo at 12.5 mg/kg: 12.5 mg/kg/day i.p.; for responders at 25 mg/kg / response vs control in vivo at 25 mg/kg: 25 mg/kg/day i.p.; for responders at 50 mg/kg / response vs control in vivo at 50 mg/kg: 50 mg/kg/day i.p. From the text: BDF1 strain male mice (5 weeks old) were each inoculated intraperitoneally with 10^5 mouse leukemia L-1210 cells and treated once a day by intraperitoneal injection with a test compound dissolved in physiological saline for 6 consecutive days beginning from the day of inoculation. The mice were then observed for 30 days to determine the rate of prolongation of survival period=100×T/C=100×(average survival days of treated group)/(average survival days of control group).

[5] abbreviates: read-out: Growth inhibition (%), (1-T/C) × 100.

≈ marks a conversion by molar mass, not a printed value.

As to `COC(NC(=O)CCCCCCCCNC(=N)N)C(=O)NCCCCNCCCN` (stereo not drawn) [Compound 11, N-[4-(3-aminopropyl)aminobutyl]-2-(9-guanidinononanamido)-2-methoxyethanamide], in series [1] (setting [5]), the inhibition at 5 µg/mL is 35%, the inhibition at 10 µg/mL stood at 52.2%, the inhibition at 20 µg/mL was 59.4% and the inhibition at 40 µg/mL amounted to 71.8%. Besides, the inhibition at 80 µg/mL in series [1] (setting [5]) is 77.9%. Further, the IC50 in series [1] came to 10 µg/mL (≈ 23.3 µM). Besides, in series [2], the MTD is over 75 mg/kg. Besides, the LD50 in series [3] was in the range of 12.5 to 25 mg/kg. In series [4], the responders at 0.2 mg/kg is 0%, the response vs control in vivo at 0.2 mg/kg came to 107%, the responders at 0.39 mg/kg was 0% and the response vs control in vivo at 0.39 mg/kg was 143%. In series [4], the responders at 0.78 mg/kg was 0%, the response vs control in vivo at 0.78 mg/kg worked out at 200%, the responders at 1.56 mg/kg is 0% and the response vs control in vivo at 1.56 mg/kg was 200%. In addition, in series [4], the responders at 3.13 mg/kg was 50%, the response vs control in vivo at 3.13 mg/kg was over 357%, the responders at 6.25 mg/kg is 75% and the response vs control in vivo at 6.25 mg/kg is over 393%. Further, in series [4], the responders at 12.5 mg/kg was 50%, the response vs control in vivo at 12.5 mg/kg is over 357%, the responders at 25 mg/kg was 0% and the response vs control in vivo at 25 mg/kg was 0%. Moreover, in series [4], the responders at 50 mg/kg is 0% and the response vs control in vivo at 50 mg/kg worked out at 0%.

Consider `N=C(N)NCCCCCCCC(=O)NC(O)C(=O)NCCCCNCCCN` (stereo not drawn) [Compound 5, N-[4-(3-aminopropyl)aminobutyl]-2-(8-guanidinooctanamido)-2-hydroxyethanamide], for which, in series [1] (setting [5]), the inhibition at 2.5 µg/mL came to 24.9%, the inhibition at 5 µg/mL amounted to 29.1%, the inhibition at 10 µg/mL is 40% and the inhibition at 20 µg/mL was 54.2%. In addition, in series [1] (setting [5]), the inhibition at 40 µg/mL was determined as 66% and the inhibition at 80 µg/mL amounted to 88.5%. In series [1] (L1210, 160 mcg/ml, read-out: Growth inhibition (%), (1-T/C) × 100), the inhibition at 160 µg/mL stood at 96.8%. For the same compound, the IC50 in series [1] was 18 µg/mL (≈ 44.8 µM). Besides, in series [2], the MTD is over 150 mg/kg. Further, the LD50 in series [3] is 25 to 50 mg/kg. In series [4], the responders at 1.56 mg/kg was 0%, the response vs control in vivo at 1.56 mg/kg was 104%, the responders at 3.13 mg/kg was 0% and the response vs control in vivo at 3.13 mg/kg was determined as 118%. For the same compound, in series [4], the responders at 6.25 mg/kg was 0%, the response vs control in vivo at 6.25 mg/kg amounted to 125%, the responders at 12.5 mg/kg is 0% and the response vs control in vivo at 12.5 mg/kg was 181%. Moreover, in series [4], the responders at 25 mg/kg was 0%, the response vs control in vivo at 25 mg/kg is 306%, the responders at 50 mg/kg is 0% and the response vs control in vivo at 50 mg/kg amounted to 0%.

Take `N=C(N)NCCCCCCC(O)CC(=O)NC(O)C(=O)NCCCCNCCCN` (stereo not drawn) [Compound 21, N-[4-(3-aminopropyl)aminobutyl]-2-(9-guanidino-3-hydroxynonanamido)-2-hydroxyethanamide]: in series [1] (L1210, 1.25 mcg/ml, read-out: Growth inhibition (%), (1-T/C) × 100), the inhibition at 1.25 µg/mL worked out at 14.6%. Besides, in series [1] (setting [5]), the inhibition at 2.5 µg/mL was found to be 21.5%, the inhibition at 5 µg/mL worked out at 29.7%, the inhibition at 10 µg/mL is 37.5% and the inhibition at 20 µg/mL was 51.6%. In series [1] (setting [5]), the inhibition at 40 µg/mL was 84% and the inhibition at 80 µg/mL was 94.5%. Moreover, the IC50 in series [1] came to 18 µg/mL (≈ 41.7 µM). The MTD in series [2] was over 150 mg/kg. Also, in series [3], the LD50 fell in the range of 25 to 50 mg/kg. For the same compound, in series [4], the responders at 0.2 mg/kg is 0%, the response vs control in vivo at 0.2 mg/kg was 100%, the responders at 0.39 mg/kg is 0% and the response vs control in vivo at 0.39 mg/kg was 100%. In series [4], the responders at 0.78 mg/kg was 0%, the response vs control in vivo at 0.78 mg/kg was 100%, the responders at 1.56 mg/kg is 0% and the response vs control in vivo at 1.56 mg/kg is 114%. In series [4], the responders at 3.13 mg/kg is 0%, the response vs control in vivo at 3.13 mg/kg was determined as 129%, the responders at 6.25 mg/kg is 0% and the response vs control in vivo at 6.25 mg/kg was found to be 164%. Also, in series [4], the responders at 12.5 mg/kg is 0%, the response vs control in vivo at 12.5 mg/kg came to 200%, the responders at 25 mg/kg was 0% and the response vs control in vivo at 25 mg/kg worked out at 229%. Further, in series [4], the responders at 50 mg/kg is 0% and the response vs control in vivo at 50 mg/kg was 0%.

Consider `COC(NC(=O)C[C@@H](O)CCCCNC(=N)N)C(=O)NCCCCNCCCN` (stereo partly drawn) [Compound 22, N-[4-(3-aminopropyl)aminobutyl]-2-(7-guanidino-3-hydroxyheptanamido)-2-methoxyethanamide], for which, in series [1] (setting [5]), the inhibition at 2.5 µg/mL came out at 60.8%, the inhibition at 5 µg/mL worked out at 82.6%, the inhibition at 10 µg/mL stood at 94.5% and the inhibition at 20 µg/mL amounted to 96.9%. Besides, in series [1] (setting [5]), the inhibition at 40 µg/mL stood at 98.3%. Moreover, the IC50 in series [1] was determined as 1.8 µg/mL (≈ 4.31 µM). The MTD in series [2] is over 150 mg/kg. Besides, the LD50 in series [3] lay within 25 to 50 mg/kg. In series [4], the responders at 1.56 mg/kg was 0%, the response vs control in vivo at 1.56 mg/kg is 117%, the responders at 3.13 mg/kg is 0% and the response vs control in vivo at 3.13 mg/kg stood at 163%. In addition, in series [4], the responders at 6.25 mg/kg is 50%, the response vs control in vivo at 6.25 mg/kg was over 332%, the responders at 12.5 mg/kg is 62.5% and the response vs control in vivo at 12.5 mg/kg was over 380%. Besides, in series [4], the responders at 25 mg/kg is 75%, the response vs control in vivo at 25 mg/kg is over 414%, the responders at 50 mg/kg is 0% and the response vs control in vivo at 50 mg/kg stood at 7%.
